Patent US8877773B2, “Methods for treating chronic obstructive pulmonary disease” (Indiana University Research and Technology Corporation, priority 2009, dated 2014)
Entries after “also recorded” stand apart in the source; their conditions may differ.

What was measured:
Format in all cases: in vivo, rat
[1] = system: panic-prone (1-AG treated) rats; experiment: Sodium lactate (NaLac) challenge in panic-prone (1-AG treated) rats: social interaction (SI) test; settings: alprazolam 3 mg/kg; for anxiety-like responses (social interaction (SI) duration) after NaLac challenge: i.p. 30 min prior to NaLac, SB334867/SB408124 30 mg/kg, experiments 4 and 6
Source text: (§1) The minipump was then sutured into place subcutaneously at the nape of the neck. The concentration of the solutions was such that 3.5 nmol/[…] per hour of 1-AG or d-AG was infused continuously into the DMH/PeF region for the remainder of the given experiment. In the case of the siRNA experiments specialized T-cannulae were implanted permitting access to a removable 28 g injector to direct siRNA injections to the same location as the 1-AG infusions. Additionally these rats had guide cannulae directed to the opposite DMH/PeF for bilateral infusion of siRNA.
(§2) Rats received intravenous (i.v.) infusions (10 ml over 15 min of either 0.5M NaLac or 0.9% isotonic saline (when applicable)) using a syringe pump at least five days following the initiation of 1-AG or d-AG infusions. Once a stable baseline was achieved, i.v. infusions began and cardiovascular and activity data were recorded for 15 min (similar to clinical NaLac infusions).
Another SI test was performed 5 days following minipump infusions and immediately following saline or sodium lactate infusions.
In experiment 3, an RNAase free environment was maintained throughout the injection procedure and all injectors, syringes and tubing were exposed to RNaseZAP and rinsed thoroughly with RNA-free water prior to siRNA injections. […] 48 hrs after siORX or siCON treatment, these rats were exposed to saline or NaLac infusions (siCon/Sal n=4, siORX/Sal n=6, siCON/Lac n=5, siORX/Lac n=6) and SI behavioral and cardiovascular responses were recorded, and were then sacrificed by rapid decapitation, following a brief (30 s) exposure to IsoFlurane® 1 hr after the intravenous infusions.
In experiments 4-6, rats were made panic vulnerable with 1-AG. […] In experiment 5, baseline in an open field (OF) behavior test of anxiety was assessed (n=8) prior to 1-AG infusions. […] In experiment 7, control rats (no 1-AG or NaLac treatment) were assessed in a SI test. […]

[2] = system: panic-prone (1-AG treated) rats; experiment: Sodium lactate (NaLac) challenge in panic-prone rats: radio-telemetry of locomotor and cardiovascular (HR, MAP) responses; settings: i.p. 30 min prior to NaLac, SB334867/SB408124 30 mg/kg, alprazolam 3 mg/kg, experiments 4 and 6
Description: Telemetry probes (Data Science International, St. Paul Minn.) were surgically implanted into the abdomen of anaesthetize rats to measure locomotor responses. Cardiovascular responses were measured by a femoral arterial line connected to the telemetric probe which contained a pressure transducer (Data Science International, St. Paul Minn.).
as §1, §2
Cardiovascular responses (i.e., MAP and HR) were measured by a femoral arterial line connected to a telemetric probe which contained a pressure transducer (Cat. no. C50-PXT, Data Science International (DSI) St. Paul Minn.). […] MAP and HR were recorded continuously in freely moving conscious rats and are expressed as a 20 min time course. The data reported are changes in HR and MAP from the average of the baseline (t−5 to t−1) from each rat. […]
In experiments 4-6, rats were made panic vulnerable with 1-AG. 5 days after 1-AG onset, in a counterbalanced design, rats received intraperitoneal (i.p.) injections of treatment drug or vehicle 30 min prior to i.v. infusions. […] In experiment 5, baseline in an open field (OF) behavior test of anxiety was assessed (n=8) prior to 1-AG infusions. […] Immediately following the NaLac challenge, rats were placed in the OF test. […] In experiment 6,1-AG treated rats received an injection of an alternative ORX1 receptor antagonist (30 mg/kg SB408124 (N-(6,8-Difluoro-2-methyl-4-quinolinyl)-N′-(4-(dimethylamino)phenyl)urea), Tocris, in 0.2 ml/100 g volume DMSO, n=4) or vehicle (0.2 ml/100 g volume DMSO, n=6) 30 min prior to NaLac. In experiment 7, control rats (no 1-AG or NaLac treatment) were assessed in a SI test.
Adult male Sprague-Dawley rats were anesthetized and surgically implanted with telemetrical probes to measure cardiovascular activity prior to and during lactate infusions. After a 3 day recovery, rats were anaesthetized and had osmotic minipumps (previously filled with 1-AG) stereotaxically implanted unilaterally into the DMH. […] 1960, Tocris, in 0.2 ml/100 g volume DMSO, n=12], alprazolam (3 mg/kg, Sigma, in 0.2 ml/100 g volume DMSO, n=6) or vehicle (0.2 ml/100 g volume DMSO, n=11) 30 min prior lactate challenge.

[3] = system: Orexin A (ORX-A) producing neurons in the DMH/PeF; experiment: c-Fos induction in ORX neurons of 1-AG and d-AG treated rats; settings: 1-AG infused into DMH/PeF (3.5 nmol/0.5 μl per hour); vs d-AG treated control rats
Description: Methods for perfusion and for verification of cannulae placements in experiment 12 were performed following procedures discussed herein. Briefly, 1-AG or d-AG treated rats received i.v. infusions of either lactate or saline vehicle over 15 min (n=6/group for 4 groups), were immediately tested in the SI test, then anesthetized and perfused with a 4% paraformaldehyde/1.5% sucrose solution and processed for immunohistochemistry 90 min following the onset of the i.v. infusions.
Brain sections from all rats were immunostained with the appropriate primary antibody in a single immunohistochemical run, rather than in batches, with large volume incubations to limit variability in the quality of immunohistochemical staining among brain sections.
Sections were washed in PBS and then incubated in 1% H2O2 in PBS for 20 min. Sections were washed in PBS then PBST then incubated 12-16 h in PBST with primary antibody. The following day, sections were incubated 2 h in the appropriate secondary antibody: biotinylated swine anti-rabbit IgG (c-Fos day 1, and orexin A or MCH day 2; cat no. E0353; DAKO, diluted 1:200). Sections were washed again for 30 min in PBST then incubated 1.5 h in an avidin-biotin-peroxidase complex (cat no. PK-6100, Vector Labs, diluted 1:200). […]

FG-7142 treated rats = experiment: FG-7142-induced anxiety: open field, social interaction and elevated plus maze tests; settings: Wistar rats; FG-7142 7.5 mg/kg ip, with or without SB334867 30 mg/kg ip
Description: All experiments were conducted on adult male Wistar rats (250-300 g) purchased from Harlan Laboratories (Indianapolis, Ind. USA) and were housed individually in plastic cages under standard environmental conditions (22° C.; 12/12 light/dark cycle; lights on at 7:00 A.M.) for 7-10 days prior to the surgical manipulations. Food and water were provided ad libitum.
The open-field arena covered an area of 90 cm×90 cm, with 40 cm high walls. The open-field arena was divided into a 6×6 grid of equally-sized squares using black tape (36 total squares) with 4 squares forming the centre; 12 squares forming the middle perimeter; and 20 squares forming the outer perimeter. The test started by placing a rat in the centre. The behavior of each rat in the open-field arena was recorded on video and scored afterwards by an observer blind to the experimental treatment of each rat. Time spent in each region of the open-field was recorded. In addition, locomotor activity was assessed by counting the number of times the rat's entire body (excluding tail) completely crossed into another square.
Following the OFT, the experimental rat was placed in an open field (0.9 m long×0.9 m wide with walls 0.3 m high) with an untreated novel partner rat. A video camera was fixed above the box, and all behavioral tests were videotaped. During the 5 min test the total amount of time the treated rat initiates interaction with the partner rat is recorded (sniffing, grooming etc.) as described previously. Videotaped sessions were scored at a later time by a SDF (blind to treatments) and a decrease in total interaction time was taken as an increase in “anxiety” like behavior.
Following the SI test, rats were place in the center area of the EPM where the two arms intersect. Unlike the SI test, the EPM measures many relevant anxiety related behaviors such as: no. of poke and full entries into and duration spent in closed versus open arm. […] Activity is measured using […] state of the art photobeams (16× beams and 16 Y beams) to provide the highest resolution system available (Automated EPM, Hamilton Kinder Scientific, San diego, CA).

c-Fos = c-Fos immunoreactive cell counts in brain regions after FG-7142 challenge; settings: FG-7142 7.5 mg/kg ip after vehicle (veh/FG) or SB334867 30 mg/kg ip (SB/FG); 90 min
Description: Fifteen min after the FG-7142 injection, all rats were tested for anxiety behavior using a 5 min open field test (OFT); 5 min social interaction (SI) test; then a 5 min elevated plus maze (EPM) test. Ninety min following FG-7142 injections, rats were anaesthetized and then the brains were removed and processed for immunohistochemistry as described in detail in subsequent section.
Ninety min following the initiation of treatment, rats were anaesthetised with an overdose of sodium pentobarbital (40 mg, i.p.) then perfused transcardially with 0.05 M phosphate buffered saline (PBS; 250 ml), followed by 0.1 M sodium phosphate buffer (PB; 250 ml) containing 4% paraformaldehyde (PFA) and 3% sucrose. Brains were removed and post-fixed for 24 h in the same fixative, rinsed for 24 h in 0.1 M PB, then placed in cryoprotectant (30% sucrose in 0.1 M PB) for an additional 4-5 days. To maintain a consistent plane for coronal sections, brains were placed in a rat brain matrix (ASI instruments, Model No. RBM-4000C) and cut with a razor blade at the caudal border of the mammillary bodies. Brains were frozen in cooled liquid isopentane made by immersing a plastic vessel containing isopentane into a dewar flask containing liquid nitrogen. Serial coronal sections (30 μm) were cut using a cryostat and were immediately placed in cryoprotectant consisting of 27% ethylene glycol and 16% glycerol in 0.05 M PB to yield six alternate sets of sections. Sections were stored at −20° C. until immunohistochemical processing.
All brain sections were immunostained with the c-Fos primary antibody in a single immunohistochemical run, rather than in batches, with large volume incubations to limit variability in the quality of immunohistochemical staining among brain sections. However, the forebrain was immunostained for c-Fos in one run and the brainstem (i.e., midbrain, pons and medulla) in another. Immunostaining for c-Fos protein was accomplished using an affinity-purified primary antibody directed at c-Fos (rabbit anti-human c-Fos polyclonal affinity-purified antibody, Cat. no. sc-52, Santa Cruz Biotechnology, San Diego, Calif.; diluted 1:10,000). Free-floating sections were washed in 0.1 M PBS for 30 min, then incubated in 1% H2O2 in PBS for 20 min. Sections were then washed 10 min in PBS and 20 min in PBS with 0.3% Triton X-100 (PBST). Sections were then incubated 12-16 h in PBST with primary antibody solution at room temperature. After a 30 min wash in PBST, sections were incubated for 2 hr in biotinylated goat anti-rabbit IgG (Cat no. BA-1000, Vector Laboratories, Burlinghame, Calif.; diluted 1:500). Sections were washed again for 30 min in PBST then incubated 1.5 hr in an avidin-biotin-peroxidase complex provided in a standard Vector Elite kit (Cat no. PK-6100, Vector Laboratories, diluted 1:200). The peroxidase substrate for the chromogen reaction was Vector SG, which was prepared as recommended by the manufacturer (Cat. no. SK-4700, Vector Laboratories). The substrate reaction was run for 20 min for the forebrain. All sections were mounted on clean glass slides, dried overnight, dehydrated and mounted with coverslips using DPX mounting medium (BDH Laboratory Supplies, Poole, UK). All washes and incubations were done at room temperature in 12-well polystyrene plates with low frequency shaking on an orbital shaker.
Selection of anatomical levels for analysis of c-Fos-immunostained cells was conducted with reference to illustrations from a rat brain stereotaxic atlas (Paxinos and Watson, 1997). Selection of anatomical levels was also done in reference to major anatomical landmarks including white matter tracts and the ventricular systems.

## Cc1cc(NC(=O)Nc2ccc(N(C)C)cc2)c2cc(F)cc(F)c2n1 [SB408124, N-(6,8-Difluoro-2-methyl-4-quinolinyl)-N′-(4-(dimethylamino)phenyl)urea]
[1]
  anxiety-like responses (social interaction (SI) duration) after NaLac challenge: did not significantly alter
[2]
  NaLac induced increases in general locomotor activity: did attenuate; also recorded: attenuated
  NaLac induced increases in heart rate (HR): did attenuate; also recorded: attenuated
  NaLac induced increases in mean arterial blood pressure (MAP): did not significantly alter

## Cc1nnc2n1-c1ccc(Cl)cc1C(c1ccccc1)=NC2 [alprazolam]
[1]
  anxiety-like responses (social interaction (SI) duration) after NaLac challenge: attenuated
[1]; i.p. 30 min prior to lactate, SB334867 30 mg/kg
  all lactate induced panic-like responses (SI, Activity, HR, MAP): attenuated; also recorded: anti-panic effects
[2]
  NaLac induced increases in general locomotor activity: attenuated
  NaLac induced increases in heart rate (HR): attenuated
  NaLac induced increases in mean arterial blood pressure (MAP): attenuated

## C=CC[C@H](N)C(=O)O [1-AG, 1-allylglycine]
[3]
  c-Fos immunoreactive ORX-A neurons in the DMH/PeF: increased

## CNC(=O)c1cc2c(cn1)[nH]c1ccccc12 [FG-7142]
FG-7142 treated rats
  time in open arms of elevated plus maze: low open arm times
c-Fos
  Mean number of c-Fos immunoreactive cells, Amygdala (−2.56 mm bregma) BLA: 9 ± 4
  Mean number of c-Fos immunoreactive cells, Amygdala (−2.56 mm bregma) LA: 10 ± 4
  Mean number of c-Fos immunoreactive cells, Amygdala (−2.56 mm bregma) MeA: 85 ± 18
  Mean number of c-Fos immunoreactive cells, DRN (−7.80 mm bregma): 1 ± 0
  Mean number of c-Fos immunoreactive cells, ILC (+2.60 mm bregma): 12 ± 6
  Mean number of c-Fos immunoreactive cells, IPBN (−9.30 mm bregma): 9 ± 3
  Mean number of c-Fos immunoreactive cells, LC (−10.04 mm bregma): 48 ± 5
  Mean number of c-Fos immunoreactive cells, LSI (+0.20 mm bregma): 12 ± 4
  Mean number of c-Fos immunoreactive cells, PRL (+2.60 mm bregma): 3 ± 1
  Mean number of c-Fos immunoreactive cells, PeF (−3.14 mm bregma): 67 ± 23
  Mean number of c-Fos immunoreactive cells, mPBN (−9.30 mm bregma): 3 ± 1
